Molecules are shown by their SMILES.

The text below walks through data of patent US5256788A, “Moranoline derivatives and their production and the use of moranoline and its derivatives as a stabilizing agent for enzymes” (Nippon Shinyaku Co. Ltd., priority 1989, dated 1993).

In one assay the test system is β-glucosidase. In words: Stabilization of β-glucosidase by moranoline and N-methylmoranoline. The assay is classed as biochemical. The conditions noted are these: 6 mg/ml of the hydrochloride, kept at 60° C. As to the method: Test samples were (1) 1 ml of 0.2M buffer solution of β-glucosidase (300 μg/ml) alone, (2) 1 ml of 0.2M buffer solution of β-glucosidase (300 μg/ml) supplemented with 6 mg/ml of moranoline hydrochloride and, (3) 1 ml of 0.2M buffer solution of β-glucosidase (300 μg/ml) supplemented with 6 mg/ml of N-methylmoranoline hydrochloride. These test samples were kept at 60° C. and the residual enzyme activity was measured with passage of time.
For determination of the enzyme activity, there was used a method measuring absorbancy at 400 nm using […] as a substrate.
That is, 200 μl of 0.014M p-nitrophenyl-β-D-glucoside, 200 μl of the enzyme solution taken from each sample for sampling with passage of time which was appropriately diluted, and 600 μl of 0.2M acetate buffer solution (pH 4.5) were reacted at 30° C. for 15 minutes. After 2 ml of 0.1M disodium carbonate was added thereto to terminate the reaction, a color was formed and the color was measured at 400 nm. When absorbancy at the initiation of the reaction was made 100, relative absorbancy in each time was defined to be residual activity.

The target of a further assay is β-amylase (Glycine max, UniProt P10538). In words: Stabilization of β-amylase by moranoline. As to conditions: 6000 μg/ml, incubated at 65° C., pH 4.8. The assay is classed as biochemical, soybean. As to the method:
For control, a sample added with no moranoline was used.
The activity of β-amylase was determined by the 3,5-dinitrosalicylic acid method of Example 37.

Sequence of β-amylase (P10538 whole entry): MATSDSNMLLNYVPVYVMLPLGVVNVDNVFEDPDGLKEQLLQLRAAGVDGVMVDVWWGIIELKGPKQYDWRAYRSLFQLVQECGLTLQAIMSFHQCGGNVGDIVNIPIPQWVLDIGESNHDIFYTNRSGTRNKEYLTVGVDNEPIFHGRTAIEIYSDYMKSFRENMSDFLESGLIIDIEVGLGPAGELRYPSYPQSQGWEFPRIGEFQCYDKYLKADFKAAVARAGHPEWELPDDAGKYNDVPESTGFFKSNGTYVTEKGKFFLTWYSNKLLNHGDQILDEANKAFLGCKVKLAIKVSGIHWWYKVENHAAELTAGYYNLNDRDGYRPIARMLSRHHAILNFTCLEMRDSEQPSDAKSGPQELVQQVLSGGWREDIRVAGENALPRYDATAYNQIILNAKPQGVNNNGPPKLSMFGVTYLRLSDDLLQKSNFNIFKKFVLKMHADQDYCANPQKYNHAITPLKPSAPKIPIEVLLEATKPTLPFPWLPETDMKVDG

In the case of `OC[C@H]1NC[C@H](O)[C@@H](O)[C@@H]1O` [moranoline], the “stabilizing effect (residual activity, FIG. 4)” value in the assay with β-glucosidase was “stabilizing effect”. Also, the “stabilizing action (residual activity, FIG. 6)” value on β-amylase was “stabilizing action”.
